The results in this text go back to patent US11608332B2, “FGFR4 inhibitor and preparation method and use thereof” (Jiangsu Hansoh Pharmaceutical Group Co., Ltd., priority 2016, dated 2023).

Some results are limits rather than exact numbers.

One data set deals with SK-HEP-1 cells. As to the kind of experiment: Inhibition of SK-HEP-1 cell proliferation (CellTiter-Glo). The class given is cell-based. The settings on record: Homo sapiens, SK-HEP1, 72 hours. A digest of the protocol: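 SK-HEP-1 cells were seeded, grown 16–24 h, then exposed to serially diluted compound for 72 h at 37 °C, 5% CO2. Viability was read by CellTiter-Glo luminescence, and IC50 was fitted from inhibition rates.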

A further data set has as its target FGFR1 kinase (Homo sapiens (Human), UniProt P11362). As to the kind of experiment: Enzymologic experiment of FGFR1 (TR-FRET). It counts as biochemical. As to conditions: TR-FRET kinase activity. In outline:
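Inhibition of FGFR1 (0.1–5 nM) was measured by TR-FRET with 5–50 nM peptide substrate and 10–200 μM ATP over 0.5–3 h at room temperature. The reaction was stopped with EDTA plus labeled antibody for 1 h, read at 665 nm, and IC50 was fitted from inhibition rates.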
In general terms: TR-FRET usually uses a lanthanide donor and a delayed reading to cut background.

A further data set relates to Hep 3B cells. Put plainly: Inhibition of Hep 3B cell proliferation (CellTiter-Glo). It counts as cell-based. As to conditions: Homo sapiens, Hep3B, 72 hours. In outline: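 Hep 3B cells seeded at 1-5×10^4 cells/ml and incubated 16-24 h, then exposed to serially diluted compound for 72 h at 37° C, 5% CO2. Viability read by CellTiter-Glo chemiluminescence; IC50 curve-fitted from inhibition rates.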
For orientation: ATP-based viability assays read luminescence as a measure of living cells.

Another data set concerns the target FGFR4 kinase (Homo sapiens (Human), UniProt P22455). As to the kind of experiment: Enzymologic experiment of FGFR4 (TR-FRET). The class given is biochemical. As to conditions: TR-FRET kinase activity. As to the method:
1. Enzymologic Experiment of FGFR4
In this experiment, the inhibitory effect of the compounds on FGFR4 kinase activity was tested by a fluorescence resonance energy transfer (TR-FRET) method, and the half maximal inhibitory concentration (IC50) of the compounds on the FGFR4 kinase activity was determined.
2) 1˜5 μL of diluted solution in gradient of the compound were added.
4) The mixture was incubated for 0.5-3 hours at room temperature.
5) 10 μL of EDTA and a test solution comprising labeled antibody were added, and the plate was incubated for 1 hour at room temperature.
6) The fluorescence signal values of each plate were determined by a microplate reader at 665 nm.
7) The inhibition rates were calculated according to the fluorescence signal values.

A further data set relates to HuH-7 cells. Put plainly: Inhibition of HuH-7 cell proliferation (CellTiter-Glo). The class given is cell-based. The settings on record: Homo sapiens, 72 hours. In outline: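 HuH-7 cells, pre-incubated 16–24 h (37 °C, 5% CO2), then exposed to serially diluted compound for 72 h. Viability by CellTiter-Glo luminescence; inhibition rates from signal, IC50 by curve fitting.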

Data set [1] can be described thus: Pharmacokinetic (PK) analysis in rats. The class given is in vivo, Sprague Dawley (SD) rats. As to conditions: SD rats, single intragastric administration, 5 mg/kg, plasma; for AUC(0-t) / AUC(0-inf) / half-life / MRT / Cmax: Sprague-Dawley, rat, po; for AUC(0-t): read-out: Area Under Curve AUC0-t; for AUC(0-inf): read-out: Area Under Curve AUC0-∞; for half-life: read-out: Half-Time t1/2 (converted); for MRT: read-out: Mean Residence Time MRT; for Cmax: read-out: Plasma Concentration Cmax.

Sequence of FGFR4 kinase (P22455 22-802): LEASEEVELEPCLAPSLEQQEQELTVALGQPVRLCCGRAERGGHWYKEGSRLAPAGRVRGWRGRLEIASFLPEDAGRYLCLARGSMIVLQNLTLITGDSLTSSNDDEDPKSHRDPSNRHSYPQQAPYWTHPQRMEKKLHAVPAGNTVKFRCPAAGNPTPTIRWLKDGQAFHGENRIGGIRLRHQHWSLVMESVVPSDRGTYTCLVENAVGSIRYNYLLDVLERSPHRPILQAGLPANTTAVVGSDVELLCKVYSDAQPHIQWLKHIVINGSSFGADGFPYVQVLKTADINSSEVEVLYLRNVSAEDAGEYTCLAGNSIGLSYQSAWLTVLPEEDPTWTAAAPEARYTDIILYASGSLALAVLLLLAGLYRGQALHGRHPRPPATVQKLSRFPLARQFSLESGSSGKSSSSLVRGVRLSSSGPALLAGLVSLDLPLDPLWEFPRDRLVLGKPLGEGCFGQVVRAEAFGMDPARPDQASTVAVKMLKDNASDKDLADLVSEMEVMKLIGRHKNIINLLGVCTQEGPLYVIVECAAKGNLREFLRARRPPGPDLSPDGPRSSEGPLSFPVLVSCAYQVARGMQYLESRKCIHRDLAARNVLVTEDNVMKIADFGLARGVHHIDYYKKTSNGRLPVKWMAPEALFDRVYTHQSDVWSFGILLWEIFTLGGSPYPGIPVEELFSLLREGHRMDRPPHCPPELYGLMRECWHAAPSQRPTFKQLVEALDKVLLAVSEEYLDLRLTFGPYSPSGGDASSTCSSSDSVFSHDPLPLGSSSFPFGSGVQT
Sequence of FGFR1 kinase (P11362 22-822): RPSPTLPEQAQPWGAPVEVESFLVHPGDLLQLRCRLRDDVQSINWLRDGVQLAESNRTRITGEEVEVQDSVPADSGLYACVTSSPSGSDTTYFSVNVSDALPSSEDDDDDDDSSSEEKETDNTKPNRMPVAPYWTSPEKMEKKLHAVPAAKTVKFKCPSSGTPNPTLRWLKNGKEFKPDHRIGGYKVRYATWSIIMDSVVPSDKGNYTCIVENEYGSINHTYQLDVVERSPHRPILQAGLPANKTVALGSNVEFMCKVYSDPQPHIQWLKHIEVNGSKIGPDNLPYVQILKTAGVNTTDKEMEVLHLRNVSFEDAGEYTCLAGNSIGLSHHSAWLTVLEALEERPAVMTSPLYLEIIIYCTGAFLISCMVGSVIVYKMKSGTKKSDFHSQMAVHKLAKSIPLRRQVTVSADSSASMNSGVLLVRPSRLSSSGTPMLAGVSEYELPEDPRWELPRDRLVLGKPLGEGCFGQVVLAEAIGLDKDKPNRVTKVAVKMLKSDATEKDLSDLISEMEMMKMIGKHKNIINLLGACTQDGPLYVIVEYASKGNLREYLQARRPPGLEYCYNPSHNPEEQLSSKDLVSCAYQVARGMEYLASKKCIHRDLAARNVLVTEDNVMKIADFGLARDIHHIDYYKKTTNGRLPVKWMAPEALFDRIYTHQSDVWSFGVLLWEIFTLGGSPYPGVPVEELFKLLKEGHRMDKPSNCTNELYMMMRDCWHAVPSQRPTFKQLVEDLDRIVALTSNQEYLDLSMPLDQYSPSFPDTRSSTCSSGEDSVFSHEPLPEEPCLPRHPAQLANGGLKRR

Usually IC50 stands for the point on the concentration scale where inhibition reaches its midpoint. `COCC(=O)N(C)Cc1cc2c(nc1C=O)N(C(=O)Nc1cc(N[C@@H]3COC[C@H]3OC)c(C#N)cn1)CCC2` (relative stereo) [Example 108, N-(5-Cyano-4-(((trans)-4-methoxytetrahydrofuran-3-yl)amino)pyridin-2-yl)-7-formyl-6-((2-methoxy-N-methylacetamido)methyl)-3,4-dihydro-1,8-naphthyridin-1 (2H)-carboxamide]: the concentration for half-maximal inhibition (IC50) is over 10000 nM in the data set with SK-HEP-1 cells; over 10000 nM against FGFR1 kinase; 2.5 nM in the data set with Hep 3B cells; 1.07 nM at FGFR4 kinase; 10 nM with HuH-7 cells.
With `CN(Cc1cc2c(nc1C=O)N(C(=O)Nc1cc(N(C)C)c(C#N)cn1)CCC2)C(=O)C1CCCO1` (centres unmarked) [Example 4, N-(5-Cyano-4-(dimethylamino)pyridin-2-yl)-7-formyl-6-((N-methyltetrahydrofuran-2-carboxamido)methyl)-3,4-dihydro-1,8-naphthyridin-1(2H)-carboxamide], the values for the IC50 against FGFR1 kinase and on FGFR4 kinase were over 10000 nM and 4.54 nM, respectively.
A word on the MRT: it is the average time that molecules of a dose stay in the body. For `COCCNc1cc(NC(=O)N2CCCc3cc(CN(C)C(=O)[C@H]4CCCN4C)c(C=O)nc32)ncc1C#N` [Example 9, (R)—N-(5-Cyano-4-((2-methoxyethyl)amino)pyridin-2-yl)-6-((N,1-dimethylpyrrolidin-2-carboxamido)methyl)-7-formyl-3,4-dihydro-1,8-naphthyridin-1(2H)-carboxamide], in data set [1], the Peak Time tmax turned out to be 2 h, the AUC(0-t) amounted to 4400 ng·h/mL, the AUC(0-inf) was found to be 4800 ng·h/mL and the half-life is 1.3 h. In data set [1], the mean residence time MRT amounted to 3 h and the Cmax was 1700 ng/mL. For the same compound, the IC50 with SK-HEP-1 cells was over 10000 nM. For the same compound, at FGFR1 kinase, the IC50 was over 10000 nM. Moreover, in the data set with Hep 3B cells, the midpoint of inhibition, the IC50, lay at 8.2 nM. The compound also registered an IC50 against FGFR4 kinase of 0.74 nM. The compound also gave an IC50 in the data set with HuH-7 cells of 31 nM.
With `COCCNc1cc(NC(=O)N2CCCc3cc(CN(C)C(=O)[C@H]4CCCN4C(C)=O)c(C=O)nc32)ncc1C#N` [Example 10, (R)-6-((1-Acetyl-N-methylpyrrolidin-2-carboxamido)methyl)-N-(5-cyano-4-((2-methoxyethyl)amino)pyridin-2-yl)-7-formyl-3,4-dihydro-1,8-naphthyridin-1(2H)-carboxamide], in data set [1], the Peak Time tmax came out at 2 h, the AUC(0-t) worked out at 5260 ng·h/mL, the AUC(0-inf) stood at 5340 ng·h/mL and the half-life is 1 h. Moreover, in data set [1], the MRT was found to be 2.8 h and the Cmax worked out at 1960 ng/mL. Besides, on FGFR1 kinase, the half-maximal inhibitory concentration (IC50) is over 10000 nM. For the same compound, inhibition at FGFR4 kinase was half-maximal at 1.88 nM (IC50).
`COC[C@@H](C)Oc1cc(NC(=O)N2CCCc3cc(CN(C)C(=O)[C@H]4CCCO4)c(C=O)nc32)ncc1C#N` [Example 15, N-(5-Cyano-4-(((R)-1-methoxypropan-2-yl)oxy)pyridin-2-yl)-7-formyl-6-(((R)—N-methyltetrahydrofuran-2-carboxamido)methyl)-3,4-dihydro-1,8-naphthyridin-1(2H)-carboxamide]: in data set [1], the Peak Time tmax was 2 h, the AUC(0-t) turned out to be 7160 ng·h/mL, the AUC(0-inf) was found to be 7970 ng·h/mL and the half-life is 1.5 h. In data set [1], the mean residence time (MRT) stood at 3 h and the Cmax came out at 2690 ng/mL. Besides, in the data set on SK-HEP-1 cells, the IC50 is over 10000 nM. Also, the IC50 at FGFR1 kinase was over 10000 nM. The IC50 in the data set with Hep 3B cells came out at 3.5 nM. Moreover, at FGFR4 kinase, half-maximal inhibition (IC50) required 2.53 nM. For the same compound, in the data set with HuH-7 cells, it took 8 nM to reach half-maximal inhibition (IC50).
For `CO[C@@H]1CCN(c2cc(NC(=O)N3CCCc4cc(CN(C)C(=O)[C@H]5CCCO5)c(C=O)nc43)ncc2C#N)C1` [Example 18, N-(5-Cyano-4-((R)-3-methoxypyrrolidin-1-yl)pyridin-2-yl)-7-formyl-6-(((R)—N-methyltetrahydrofuran-2-carboxamido)methyl)-3,4-dihydro-1,8-naphthyridin-1(2H)-carboxamide], the half-inhibitory concentration (IC50) against FGFR1 kinase was over 10000 nM; on FGFR4 kinase, 4.2 nM.
With `COC[C@@H](C)Nc1cc(NC(=O)N2CCCc3cc(CN(C)C(=O)[C@H]4CCCO4)c(C=O)nc32)ncc1C#N` [Example 93, N-(5-Cyano-4-(((R)-1-methoxypropan-2-yl)amino)pyridin-2-yl)-7-formyl-6-(((R)—N-methyltetrahydrofuran-2-carboxamido)methyl)-3,4-dihydro-1,8-naphthyridin-1(2H)-carboxamide], in data set [1], the Peak Time tmax worked out at 2 h, the AUC(0-t) amounted to 9420 ng·h/mL, the AUC(0-inf) was determined as 9480 ng·h/mL and the half-life was 0.9 h. Further, in data set [1], the MRT came to 2.5 h and the Cmax turned out to be 2860 ng/mL. The half-maximal inhibitory concentration (IC50) in the data set with SK-HEP-1 cells was over 10000 nM. Further, the 50% inhibitory concentration (IC50) against FGFR1 kinase is over 10000 nM. This compound also came in with an IC50 with Hep 3B cells of 3.7 nM. In the data set with HuH-7 cells, this compound yielded a half-inhibitory concentration (IC50) of 5 nM.
As to `CN(Cc1cc2c(nc1C=O)N(C(=O)Nc1cc(N[C@H]3CCOC3)c(C#N)cn1)CCC2)C(=O)[C@H]1CCCO1` [Example 94, N-(5-Cyano-4-(((S)-tetrahydrofuran-3-yl)amino)pyridin-2-yl)-7-formyl-6-(((R)—N-methyltetrahydrofuran-2-carboxamido)methyl)-3,4-dihydro-1,8-naphthyridin-1 (2H)-carboxamide], in data set [1], the Peak Time tmax turned out to be 2 h, the AUC(0-t) stood at 13000 ng·h/mL, the AUC(0-inf) was found to be 12400 ng·h/mL and the half-life is 0.8 h. Also, in data set [1], the MRT amounted to 2.8 h and the Cmax amounted to 3750 ng/mL. The concentration for half-maximal inhibition (IC50) in the data set on SK-HEP-1 cells is over 10000 nM. The compound also returned an IC50 against FGFR1 kinase of over 10000 nM. This compound returned an IC50 in the data set with Hep 3B cells of 3.9 nM. In the data set on HuH-7 cells, this compound gave an IC50 of 13.8 nM.
As to `CCN1CCC[C@@H]1C(=O)N(C)Cc1cc2c(nc1C=O)N(C(=O)Nc1cc(NCCOC)c(C#N)cn1)CCC2` [Example 97, (R)—N-(5-Cyano-4-((2-methoxyethyl)amino)pyridin-2-yl)-6-((1-ethyl-N-methylpyrrolidin-2-carboxamido)methyl)-7-formyl-3,4-dihydro-1,8-naphthyridin-1(2H)-carboxamide], the IC50 is over 10000 nM in the data set on SK-HEP-1 cells; over 10000 nM at FGFR1 kinase; 9.8 nM with Hep 3B cells; 1.47 nM against FGFR4 kinase; 43.7 nM with HuH-7 cells.
As to `COCCNc1cc(NC(=O)N2CCCc3cc(CN(C)C(=O)C4CCOCC4)c(C=O)nc32)ncc1C#N` [Example 98, N-(5-Cyano-4-((2-methoxyethyl)amino)pyridin-2-yl)-7-formyl-6-((N-methyltetrahydro-2H-pyran-4-carboxamido)methyl)-3,4-dihydro-1,8-naphthyridin-1(2H)-carboxamide], in data set [1], the Peak Time tmax amounted to 2 h, the AUC(0-t) turned out to be 6700 ng·h/mL, the AUC(0-inf) stood at 6840 ng·h/mL and the half-life was 0.9 h. Also, in data set [1], the MRT was found to be 3.1 h and the Cmax came to 2690 ng/mL. Also, the concentration for half-maximal inhibition (IC50) with SK-HEP-1 cells is over 10000 nM. On FGFR1 kinase, this compound registered an IC50 of over 10000 nM. In the data set on Hep 3B cells, this compound showed a half-maximal inhibitory concentration (IC50) of 2.7 nM. Besides, inhibition with HuH-7 cells was half-maximal at 11.2 nM (IC50).
With `CN(Cc1cc2c(nc1C=O)N(C(=O)Nc1cc(N[C@H]3CCOC3)c(C#N)cn1)CCC2)C(=O)C1CCOCC1` [Example 99, (S)—N-(5-Cyano-4-((tetrahydrofuran-3-yl)amino)pyridin-2-yl)-7-formyl-6-((N-methyltetrahydro-2H-pyran-4-carboxamido)methyl)-3,4-dihydro-1,8-naphthyridin-1(2H)-carboxamide], the IC50 is over 10000 nM in the data set on SK-HEP-1 cells; over 10000 nM against FGFR1 kinase; 5.5 nM in the data set with Hep 3B cells; 1.95 nM on FGFR4 kinase; 12 nM in the data set on HuH-7 cells.
For the compound `COCC(=O)N(C)Cc1cc2c(nc1C=O)N(C(=O)Nc1cc(N3CC[C@@H](OC)C3)c(C#N)cn1)CCC2` [Example 107, (R)—N-(5-Cyano-4-(3-methoxypyrrolidin-1-yl)pyridin-2-yl)-7-formyl-6-((2-methoxy-N-methylacetamido)methyl)-3,4-dihydro-1,8-naphthyridin-1(2H)-carboxamide], in data set [1], the Peak Time tmax worked out at 4 h, the AUC(0-t) worked out at 2630 ng·h/mL, the AUC(0-inf) is 2670 ng·h/mL and the half-life is 1 h. In data set [1], the MRT was found to be 2.8 h and the Cmax came out at 1940 ng/mL. Moreover, in the data set on SK-HEP-1 cells, the IC50 was over 10000 nM. Also, on FGFR1 kinase, the IC50 was over 10000 nM. The same compound registered an IC50 with Hep 3B cells of 1.6 nM. Also, the half-inhibitory concentration (IC50) in the data set with HuH-7 cells was 7.3 nM.
